Results on 2 compounds are retold here after patent US12543738B2 (Bayer Aktiengesellschaft, priority 2020, dated 2026).

One data set relates to Botrytis cinerea. Description: In vivo preventive test on Botrytis cinerea (grey mould). To be noted: 500 ppm of active ingredient, preventive spray on gherkin or cabbage, evaluated 4 to 5 days after inoculation, read-out: efficacy. The procedure, abridged:
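Young plants of gherkin or cabbage were sprayed with water-diluted compound formulated in DMSO/acetone/Tween 80, with solvent-only controls. Inoculation followed 24 h later by spraying an aqueous spore suspension of Botrytis cinerea onto leaves.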

Another data set has as its system Pyricularia Oryzae. As to the kind of experiment: microbe, parasite or virus in culture. It counts as cell-based. To be noted: 120 h, read-out: efficacy (inhibition of fungal growth).
Another data set concerns Septoria tritici. Description: Septoria tritici in vitro cell test. The data set is classed as cell-based. As to conditions: Zymoseptoria tritici, 168 h; 20 ppm of active ingredient; liquid culture, 7 days incubation; read-out: efficacy (inhibition of fungal growth). The essentials:
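Liquid culture of S. tritici spore suspension in defined mineral/sucrose medium with compounds added from DMSO solutions; measures inhibition of spore germination and mycelial growth. Growth inhibition derived from absorbance relative to untreated control wells.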

Data set [1] concerns Colletotrichum lindemuthianum. As to the kind of experiment: Colletotrichum lindemuthianum in vitro cell test. As to conditions: 144 h, 20 ppm of active ingredient, liquid culture, 6 days incubation, read-out: efficacy (inhibition of fungal growth). It counts as cell-based. The procedure, abridged:
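Liquid-culture assay: C. lindemuthianum spores in glucose/peptone/yeast extract medium exposed to DMSO-solubilized compound, 6 days incubation. Inhibition of germination and mycelial growth derived from absorbance versus fungicide-free control wells.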

Another data set deals with Sphaerotheca fuliginea. As to the kind of experiment: In vivo preventive test on Sphaerotheca fuliginea (powdery mildew on cucurbits). To be noted: Podosphaera fuliginea, 192 h; 500 ppm of active ingredient; preventive spray on gherkin; evaluated 8 days after inoculation; read-out: efficacy. The procedure, abridged:
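Preventive spray on young gherkin plants with compound in DMSO/acetone/Tween 80 diluted in water; controls received solvent only. Leaves inoculated 24 h later by spraying an aqueous S. fuliginea spore suspension.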

The subject of the next data set is Alternaria brassicae. As to the kind of experiment: In vivo preventive test on Alternaria brassicae (leaf spot on radish or cabbage). As to conditions: 144 h, 500 ppm of active ingredient, preventive spray on radish or cabbage, evaluated 6 days after inoculation, read-out: efficacy. The essentials:
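Young radish or cabbage plants sprayed with compound dissolved in DMSO/acetone/Tween 80 and diluted in water; controls received solvent only. Leaves inoculated 24 h later by spraying an aqueous Alternaria brassicae spore suspension.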

The test system of data set [2] is Colletotrichum lindemuthianum. Description: In vivo preventive test on Colletotrichum lindemuthianum (leaf spot on bean). As to conditions: 168 h, 500 ppm of active ingredient, preventive spray on bean, evaluated 7 days after inoculation, read-out: efficacy. The procedure, abridged:
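Young bean plants were sprayed with compound dissolved in DMSO/acetone/Tween 80 and diluted in water; controls received the solvent mixture alone. Leaves were spray-inoculated with C. lindemuthianum spore suspension 24 h after treatment (preventive).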

Data set [3] can be described thus: Measurement of LogP values by HPLC on reversed phase columns (EEC directive 79/831 Annex V.A8). The data set is classed as physicochemical. To be noted: method [a]: LC-UV, acidic range, 0.1% formic acid in water and acetonitrile; compounds of formula (I-1), Table 1. On the procedure:
Calibration was done with straight-chain alkan2-ones (with 3 to 16 carbon atoms) with known LogP values (measurement of LogP values using retention times with linear interpolation between successive alkanones). Lambda-max-values were determined using UV-spectra from 200 nm to 400 nm and the peak values of the chromatographic signals

A further data set concerns Pyrenophora teres. As to the kind of experiment: In vivo preventive test on Pyrenophora teres (net blotch on barley). As to conditions: 240 h, 500 ppm of active ingredient, preventive spray on barley, evaluated 10 days after inoculation, read-out: efficacy. The essentials:
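Young barley plants sprayed preventively with compound dissolved in DMSO/acetone/Tween 80 and diluted in water; controls received solvent mixture only. Leaves inoculated 24 h later by spraying an aqueous P. teres spore suspension.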

In another data set the test system is Fusarium culmorum. Description: Fusarium culmorum in vitro cell test. It counts as cell-based. As to conditions: 96 h, 20 ppm of active ingredient, liquid culture, 4 days incubation, read-out: efficacy (inhibition of fungal growth). The procedure, abridged: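 Spores were exposed to compounds in glucose/peptone/yeast-extract liquid medium, final DMSO ≤1%. After 4 days, mycelium growth was read by absorbance. Inhibition was derived relative to control wells without fungicide.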

A further data set concerns Alternaria alternata. Description: Alternaria alternata in vitro cell test. It counts as cell-based. As to conditions: 120 h, 20 ppm of active ingredient, liquid culture, 5 days incubation, read-out: efficacy (inhibition of fungal growth). The procedure, abridged:
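A. alternata spores in glucose–peptone–yeast extract liquid medium were exposed to DMSO-solubilized compounds. Mycelial growth was measured spectrophotometrically after 5 days. Inhibition was calculated from absorbance relative to compound-free controls.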

SMILES strings stand for the structures.

Regarding `C[C@@H](F)c1cc(C2=NOC[C@@H](Cc3ccc(Cl)cc3Cl)N2)c(Oc2cccc(C3CC3)c2F)nn1` (racemic) [Compound I-018, (5RS)-3-{3-(3-cyclopropyl-2-fluorophenoxy)-6-[(1RS)-1-fluoroethyl]pyridazin-4-yl}-5-(2,4-dichlorobenzyl)-5,6-dihydro-4H-1,2,4-oxadiazine], the pest or weed control at 500 ppm (with Botrytis cinerea; in the data set on Sphaerotheca fuliginea; in the data set on Alternaria brassicae; in data set [2]; in the data set with Pyrenophora teres) was 90 to 100% each time. Further, the inhibition at 20 ppm (in the data set on Pyricularia Oryzae; with Septoria tritici; in [1]; in the data set with Fusarium culmorum; with Alternaria alternata) was 90 to 100% throughout. The compound further had a chromatographic logP in data set [3] of 4.74.

Turning to `O=CN1C(c2cc(Cl)nnc2Oc2cccc(C3CC3)c2F)=NOCC1Cc1ccc(Cl)cc1Cl` (racemic) [Compound I-025, (5RS)-3-[6-chloro-3-(3-cyclopropyl-2-fluorophenoxy)pyridazin-4-yl]-5-(2,4-dichlorobenzyl)-5,6-dihydro-4H-1,2,4-oxadiazine-4-carbaldehyde], the pest or weed control at 500 ppm (with Botrytis cinerea; with Sphaerotheca fuliginea; in the data set on Alternaria brassicae; in data set [2]; with Pyrenophora teres) was 90 to 100% each time. The inhibition at 20 ppm (in the data set with Pyricularia Oryzae; with Septoria tritici; in data set [1]; with Fusarium culmorum; in the data set on Alternaria alternata) was 90 to 100% throughout. The compound further came in with a chromatographic logP in data set [3] of 4.93.
